From ChEMBL document CHEMBL1151054, “Fungal metabolite of naftazone inhibits nitrite production by activated murine macrophages” (Bioorg Med Chem Lett, 1995)

How the values were obtained:
[1] = target: T1, Nitric oxide synthase, inducible (Mus musculus, UniProt P29477); test: Compound was tested for inhibition of inducible Nitric oxide synthase in activated murine macrophages.
T1 sequence (P29477 whole entry): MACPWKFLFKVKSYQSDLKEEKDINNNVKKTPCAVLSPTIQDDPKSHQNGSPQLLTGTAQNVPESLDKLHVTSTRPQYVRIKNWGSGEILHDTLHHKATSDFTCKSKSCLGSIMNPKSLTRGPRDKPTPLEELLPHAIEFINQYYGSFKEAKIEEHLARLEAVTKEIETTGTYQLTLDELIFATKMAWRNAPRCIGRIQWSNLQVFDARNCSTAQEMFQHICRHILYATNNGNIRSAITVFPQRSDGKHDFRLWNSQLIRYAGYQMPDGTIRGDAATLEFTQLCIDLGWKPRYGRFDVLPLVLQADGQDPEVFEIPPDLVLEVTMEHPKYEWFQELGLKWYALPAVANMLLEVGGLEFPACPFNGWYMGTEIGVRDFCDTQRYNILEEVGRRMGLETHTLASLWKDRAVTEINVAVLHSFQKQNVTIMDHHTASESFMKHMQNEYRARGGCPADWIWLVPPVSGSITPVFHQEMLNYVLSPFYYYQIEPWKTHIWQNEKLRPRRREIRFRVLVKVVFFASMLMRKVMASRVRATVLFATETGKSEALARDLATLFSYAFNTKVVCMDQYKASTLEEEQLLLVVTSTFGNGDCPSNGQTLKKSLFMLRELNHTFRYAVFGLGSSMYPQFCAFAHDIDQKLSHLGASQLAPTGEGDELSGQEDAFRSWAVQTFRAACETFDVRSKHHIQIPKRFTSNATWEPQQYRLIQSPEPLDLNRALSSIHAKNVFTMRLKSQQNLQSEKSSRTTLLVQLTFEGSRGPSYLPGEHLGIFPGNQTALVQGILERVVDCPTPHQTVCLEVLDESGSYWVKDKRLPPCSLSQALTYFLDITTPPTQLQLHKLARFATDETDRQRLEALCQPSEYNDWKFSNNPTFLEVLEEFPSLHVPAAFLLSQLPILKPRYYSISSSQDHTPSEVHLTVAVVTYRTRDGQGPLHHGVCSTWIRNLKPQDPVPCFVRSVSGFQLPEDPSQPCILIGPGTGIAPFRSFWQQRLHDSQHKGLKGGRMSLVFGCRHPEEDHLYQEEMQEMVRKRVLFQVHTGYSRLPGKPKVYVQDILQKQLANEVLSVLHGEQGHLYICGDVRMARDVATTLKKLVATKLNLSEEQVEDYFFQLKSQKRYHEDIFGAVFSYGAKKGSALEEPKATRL

[2] = Compound was tested for inhibition of constitutive bovine brain Nitric oxide synthase; format: tissue-based

Row | IC50 [1] [µM] | IC50 [2] [µM] | SMILES
1 | 20 | 2.5 | O=[N+]([O-])c1ccc2cn[nH]c2c1
2 | 50 | – | O=c1nnc2ccc3c(c2[nH]1)=CCCC=3

Row | SMILES | IC50 [1] [µM] | IC50 [2] [µM]
3 | c1ccc(-n2ccnc2)cc1 | 8 | –
